Experimental data reported in patent US10597387B2, “Methods to treat lymphoplasmacytic lymphoma” (Dana-Farber Cancer Institute, Inc., priority 2013, dated 2020).
Read-outs that look alike come from different tables or passages of the source.

How the values were obtained:
Assay in all cases: KiNativ kinase profiling
ABL, ARG = type: binding, Homo sapiens; conditions: Activation Loop, 1 μM, A375 cells
BARK1 = BARK1 (Homo sapiens (Human), UniProt P25098); type: binding; conditions: Lys2, A375 cells, read-out: inhibition of kinase labeling
CaMK1d = CaMK1d (Homo sapiens (Human), UniProt Q8IU85); type: binding; conditions: Lys1, A375 cells, read-out: inhibition of kinase labeling
[1] = tested on: CaMK2a, CaMK2b, CaMK2d, CaMK2g; type: binding, Homo sapiens; conditions: Lys2, 1 μM, A375 cells
CaMK2d = CaMK2d (Homo sapiens (Human), UniProt Q13557); type: binding; conditions: Lys1, A375 cells, read-out: inhibition of kinase labeling
CaMK4 = CaMK4 (Homo sapiens (Human), UniProt Q16566); type: binding; conditions: Lys2, A375 cells, read-out: inhibition of kinase labeling
CDK2 = CDK2 (Homo sapiens (Human), UniProt P24941); type: binding; conditions: Lys2, A375 cells, read-out: inhibition of kinase labeling
CDK5 = CDK5 (Homo sapiens (Human), UniProt Q00535); type: binding; conditions: Lys2, A375 cells, read-out: inhibition of kinase labeling
CK1a = CK1a (Homo sapiens (Human), UniProt P48729); type: binding; conditions: Lys2, A375 cells, read-out: inhibition of kinase labeling
CK1g2 = CK1g2 (Homo sapiens (Human), UniProt P78368); type: binding; conditions: Lys2, A375 cells, read-out: inhibition of kinase labeling
DNAPK = DNAPK (Homo sapiens (Human), UniProt P78527); type: binding; conditions: ATP, A375 cells, read-out: inhibition of kinase labeling
Erk1 = Erk1 (Homo sapiens (Human), UniProt P27361); type: binding; conditions: Lys2, A375 cells, read-out: inhibition of kinase labeling
GSK3A = GSK3A (Homo sapiens (Human), UniProt P49840); type: binding; conditions: Lys2, A375 cells, read-out: inhibition of kinase labeling
GSK3B = GSK3B (Homo sapiens (Human), UniProt P49841); type: binding; conditions: Lys2, A375 cells, read-out: inhibition of kinase labeling
HPK1 = HPK1 (Homo sapiens (Human), UniProt Q92918); type: binding; conditions: Lys1, A375 cells, read-out: inhibition of kinase labeling
IKKe, TBK1 = type: binding, Homo sapiens; conditions: Lys2, 1 μM, A375 cells
JAK1 domain2 = JAK1 domain2 (Homo sapiens (Human), UniProt P23458); type: binding; conditions: Lys1, A375 cells, read-out: inhibition of kinase labeling
KHS1 = KHS1 (Homo sapiens (Human), UniProt Q9Y4K4); type: binding; conditions: Lys1, A375 cells, read-out: inhibition of kinase labeling
LCK = LCK (Homo sapiens (Human), UniProt P06239); type: binding; conditions: Activation Loop, A375 cells, read-out: inhibition of kinase labeling
LKB1 = LKB1 (Homo sapiens (Human), UniProt Q15831); type: binding; conditions: Lys2, A375 cells, read-out: inhibition of kinase labeling
LOK = LOK (Homo sapiens (Human), UniProt O94804); type: binding; conditions: Lys2, A375 cells, read-out: inhibition of kinase labeling
LYN = LYN (Homo sapiens (Human), UniProt P07948); type: binding; conditions: read-out: inhibition of kinase labeling
MAP2K1 = MAP2K1 (Homo sapiens (Human), UniProt Q02750); type: binding; conditions: Lys2, A375 cells, read-out: inhibition of kinase labeling
MAP2K1, MAP2K2 = type: binding, Homo sapiens; conditions: Lys2, 1 μM, A375 cells
MAP2K4 = MAP2K4 (Homo sapiens (Human), UniProt P45985); type: binding; conditions: Lys2, A375 cells, read-out: inhibition of kinase labeling
MAP3K5 = MAP3K5 (Homo sapiens (Human), UniProt Q99683); type: binding; conditions: Lys2, A375 cells, read-out: inhibition of kinase labeling
MARK1, MARK2 = type: binding, Homo sapiens; conditions: Lys1, 1 μM, A375 cells
MARK2, MARK3 = type: binding, Homo sapiens; conditions: Lys2, 1 μM, A375 cells
NEK6, NEK7 = type: binding, Homo sapiens; conditions: Lys2, 1 μM, A375 cells
p70S6K = p70S6K (Homo sapiens (Human), UniProt P23443); type: binding; conditions: Lys2, A375 cells, read-out: inhibition of kinase labeling
PFTAIRE1 = PFTAIRE1 (Homo sapiens (Human), UniProt O94921); type: binding; conditions: Lys1, A375 cells, read-out: inhibition of kinase labeling
PIK3C3 = PIK3C3 (Homo sapiens (Human), UniProt Q8NEB9); type: binding; conditions: ATP, A375 cells, read-out: inhibition of kinase labeling
PIK3CB = PIK3CB (Homo sapiens (Human), UniProt P42338); type: binding; conditions: ATP, A375 cells, read-out: inhibition of kinase labeling
PKD1, PKD2 = type: binding, Homo sapiens; conditions: Lys2, 1 μM, A375 cells
PKD2 = PKD2 (Homo sapiens (Human), UniProt Q9BZL6); type: binding; conditions: Lys1, A375 cells, read-out: inhibition of kinase labeling
PKN1 = PKN1 (Homo sapiens (Human), UniProt Q16512); type: binding; conditions: Lys1, A375 cells, read-out: inhibition of kinase labeling
RSK2 domain1 = RSK2 domain1 (Homo sapiens (Human), UniProt P51812); type: binding; conditions: Lys2, A375 cells, read-out: inhibition of kinase labeling
STLK5 = STLK5 (Homo sapiens (Human), UniProt Q7RTN6); type: binding; conditions: Activation Loop, A375 cells, read-out: inhibition of kinase labeling
TAO1, TAO3 = type: binding, Homo sapiens; conditions: Lys2, 1 μM, A375 cells
ZAK = ZAK (Homo sapiens (Human), UniProt Q9NYL2); type: binding
ZAP70 = ZAP70 (Homo sapiens (Human), UniProt P43403); type: binding; conditions: Activation Loop, A375 cells, read-out: inhibition of kinase labeling

Chain of ZAK (Q9NYL2 whole entry): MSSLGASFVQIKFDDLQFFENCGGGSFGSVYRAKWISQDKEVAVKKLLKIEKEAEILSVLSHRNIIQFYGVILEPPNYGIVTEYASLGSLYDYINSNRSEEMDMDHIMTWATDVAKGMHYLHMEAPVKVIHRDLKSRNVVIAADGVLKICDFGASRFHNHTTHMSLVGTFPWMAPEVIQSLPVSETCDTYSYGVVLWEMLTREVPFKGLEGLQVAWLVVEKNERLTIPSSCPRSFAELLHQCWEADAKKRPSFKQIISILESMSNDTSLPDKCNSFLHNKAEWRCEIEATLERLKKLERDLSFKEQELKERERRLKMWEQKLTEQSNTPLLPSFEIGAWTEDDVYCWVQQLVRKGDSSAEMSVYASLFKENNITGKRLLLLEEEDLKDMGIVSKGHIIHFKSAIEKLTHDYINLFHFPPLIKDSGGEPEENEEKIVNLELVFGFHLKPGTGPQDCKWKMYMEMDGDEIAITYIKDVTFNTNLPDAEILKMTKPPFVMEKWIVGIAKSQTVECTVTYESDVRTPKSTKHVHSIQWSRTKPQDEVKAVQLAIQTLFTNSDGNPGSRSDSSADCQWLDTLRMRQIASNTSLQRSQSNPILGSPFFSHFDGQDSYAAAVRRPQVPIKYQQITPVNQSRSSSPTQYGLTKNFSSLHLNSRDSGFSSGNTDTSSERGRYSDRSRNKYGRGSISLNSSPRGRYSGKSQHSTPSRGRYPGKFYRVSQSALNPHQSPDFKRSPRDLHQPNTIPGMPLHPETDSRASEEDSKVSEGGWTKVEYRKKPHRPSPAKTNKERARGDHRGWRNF
Chain of LYN (P07948 whole entry): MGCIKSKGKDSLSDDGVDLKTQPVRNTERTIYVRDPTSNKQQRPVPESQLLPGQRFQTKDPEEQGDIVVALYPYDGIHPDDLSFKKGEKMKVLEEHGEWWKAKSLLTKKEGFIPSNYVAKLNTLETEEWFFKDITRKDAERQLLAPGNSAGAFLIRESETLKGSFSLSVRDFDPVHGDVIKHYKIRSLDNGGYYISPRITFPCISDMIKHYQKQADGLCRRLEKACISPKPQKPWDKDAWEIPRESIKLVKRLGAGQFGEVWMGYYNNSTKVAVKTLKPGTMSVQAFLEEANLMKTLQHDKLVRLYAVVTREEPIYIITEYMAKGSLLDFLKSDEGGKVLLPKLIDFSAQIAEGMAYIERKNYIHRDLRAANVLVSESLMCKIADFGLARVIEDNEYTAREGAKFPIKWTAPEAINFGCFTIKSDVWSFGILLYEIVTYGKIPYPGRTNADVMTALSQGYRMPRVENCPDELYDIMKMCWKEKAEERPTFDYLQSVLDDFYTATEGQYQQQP
Chain of STLK5 (Q7RTN6 whole entry): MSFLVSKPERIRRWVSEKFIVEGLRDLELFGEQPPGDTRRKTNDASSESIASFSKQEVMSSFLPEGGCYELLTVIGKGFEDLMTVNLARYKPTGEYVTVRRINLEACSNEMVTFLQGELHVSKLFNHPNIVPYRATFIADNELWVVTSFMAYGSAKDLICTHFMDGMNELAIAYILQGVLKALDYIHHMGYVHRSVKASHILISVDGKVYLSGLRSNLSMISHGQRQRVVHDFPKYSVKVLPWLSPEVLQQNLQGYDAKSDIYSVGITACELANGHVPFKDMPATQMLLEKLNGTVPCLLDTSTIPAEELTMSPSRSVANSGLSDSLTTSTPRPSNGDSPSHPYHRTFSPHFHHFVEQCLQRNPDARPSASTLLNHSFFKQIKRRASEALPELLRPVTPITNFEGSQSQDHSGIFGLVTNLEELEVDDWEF
Chain of BARK1 (P25098 whole entry): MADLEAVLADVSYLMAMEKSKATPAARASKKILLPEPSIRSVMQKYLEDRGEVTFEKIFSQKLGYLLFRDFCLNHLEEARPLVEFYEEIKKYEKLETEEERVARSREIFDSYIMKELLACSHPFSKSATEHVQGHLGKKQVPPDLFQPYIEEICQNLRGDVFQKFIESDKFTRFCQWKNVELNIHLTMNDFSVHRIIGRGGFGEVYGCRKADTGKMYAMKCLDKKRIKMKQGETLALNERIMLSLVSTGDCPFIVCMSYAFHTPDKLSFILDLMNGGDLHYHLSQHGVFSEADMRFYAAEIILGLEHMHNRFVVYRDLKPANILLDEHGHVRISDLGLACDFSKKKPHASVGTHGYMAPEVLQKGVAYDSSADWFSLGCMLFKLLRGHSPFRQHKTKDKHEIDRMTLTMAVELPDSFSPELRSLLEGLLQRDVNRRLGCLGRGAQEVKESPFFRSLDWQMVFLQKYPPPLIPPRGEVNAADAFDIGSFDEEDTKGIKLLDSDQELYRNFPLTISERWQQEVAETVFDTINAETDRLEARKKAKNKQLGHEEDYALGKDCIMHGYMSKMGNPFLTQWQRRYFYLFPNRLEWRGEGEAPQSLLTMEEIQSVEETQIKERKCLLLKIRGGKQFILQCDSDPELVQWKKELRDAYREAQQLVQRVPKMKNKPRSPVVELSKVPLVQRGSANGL
Chain of MAP3K5 (Q99683 whole entry): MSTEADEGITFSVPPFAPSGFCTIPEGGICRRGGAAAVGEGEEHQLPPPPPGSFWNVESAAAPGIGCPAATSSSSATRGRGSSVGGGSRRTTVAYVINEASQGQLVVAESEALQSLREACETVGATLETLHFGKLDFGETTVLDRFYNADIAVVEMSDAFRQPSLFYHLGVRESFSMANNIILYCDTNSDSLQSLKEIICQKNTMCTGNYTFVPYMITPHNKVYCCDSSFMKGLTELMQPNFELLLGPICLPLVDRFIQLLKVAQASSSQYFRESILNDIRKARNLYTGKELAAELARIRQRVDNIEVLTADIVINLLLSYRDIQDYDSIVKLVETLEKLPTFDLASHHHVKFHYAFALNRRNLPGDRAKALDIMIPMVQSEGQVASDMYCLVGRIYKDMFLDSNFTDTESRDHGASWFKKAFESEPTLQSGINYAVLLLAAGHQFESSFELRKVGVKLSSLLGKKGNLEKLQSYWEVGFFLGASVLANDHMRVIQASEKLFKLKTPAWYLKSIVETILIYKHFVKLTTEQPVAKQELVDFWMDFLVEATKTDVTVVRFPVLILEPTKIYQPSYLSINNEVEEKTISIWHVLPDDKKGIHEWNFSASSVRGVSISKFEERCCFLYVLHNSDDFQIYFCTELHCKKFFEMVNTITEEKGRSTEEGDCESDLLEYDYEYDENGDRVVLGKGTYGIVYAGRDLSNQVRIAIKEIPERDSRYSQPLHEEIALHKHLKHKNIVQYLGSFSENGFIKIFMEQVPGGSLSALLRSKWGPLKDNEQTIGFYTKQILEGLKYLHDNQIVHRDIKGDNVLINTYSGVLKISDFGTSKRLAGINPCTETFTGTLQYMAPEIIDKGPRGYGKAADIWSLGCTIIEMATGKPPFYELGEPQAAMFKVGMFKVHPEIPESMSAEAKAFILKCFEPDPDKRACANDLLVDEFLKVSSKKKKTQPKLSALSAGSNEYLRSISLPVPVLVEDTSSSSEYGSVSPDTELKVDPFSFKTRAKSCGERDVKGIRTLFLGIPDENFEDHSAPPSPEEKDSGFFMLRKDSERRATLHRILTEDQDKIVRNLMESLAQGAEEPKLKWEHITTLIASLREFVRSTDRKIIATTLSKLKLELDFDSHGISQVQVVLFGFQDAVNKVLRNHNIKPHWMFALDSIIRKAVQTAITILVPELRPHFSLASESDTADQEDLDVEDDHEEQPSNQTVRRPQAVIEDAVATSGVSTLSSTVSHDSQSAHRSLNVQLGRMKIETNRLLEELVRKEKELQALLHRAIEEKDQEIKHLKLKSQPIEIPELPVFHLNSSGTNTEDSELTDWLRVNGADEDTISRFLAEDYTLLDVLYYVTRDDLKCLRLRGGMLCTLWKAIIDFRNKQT
Chain of LOK (O94804 whole entry): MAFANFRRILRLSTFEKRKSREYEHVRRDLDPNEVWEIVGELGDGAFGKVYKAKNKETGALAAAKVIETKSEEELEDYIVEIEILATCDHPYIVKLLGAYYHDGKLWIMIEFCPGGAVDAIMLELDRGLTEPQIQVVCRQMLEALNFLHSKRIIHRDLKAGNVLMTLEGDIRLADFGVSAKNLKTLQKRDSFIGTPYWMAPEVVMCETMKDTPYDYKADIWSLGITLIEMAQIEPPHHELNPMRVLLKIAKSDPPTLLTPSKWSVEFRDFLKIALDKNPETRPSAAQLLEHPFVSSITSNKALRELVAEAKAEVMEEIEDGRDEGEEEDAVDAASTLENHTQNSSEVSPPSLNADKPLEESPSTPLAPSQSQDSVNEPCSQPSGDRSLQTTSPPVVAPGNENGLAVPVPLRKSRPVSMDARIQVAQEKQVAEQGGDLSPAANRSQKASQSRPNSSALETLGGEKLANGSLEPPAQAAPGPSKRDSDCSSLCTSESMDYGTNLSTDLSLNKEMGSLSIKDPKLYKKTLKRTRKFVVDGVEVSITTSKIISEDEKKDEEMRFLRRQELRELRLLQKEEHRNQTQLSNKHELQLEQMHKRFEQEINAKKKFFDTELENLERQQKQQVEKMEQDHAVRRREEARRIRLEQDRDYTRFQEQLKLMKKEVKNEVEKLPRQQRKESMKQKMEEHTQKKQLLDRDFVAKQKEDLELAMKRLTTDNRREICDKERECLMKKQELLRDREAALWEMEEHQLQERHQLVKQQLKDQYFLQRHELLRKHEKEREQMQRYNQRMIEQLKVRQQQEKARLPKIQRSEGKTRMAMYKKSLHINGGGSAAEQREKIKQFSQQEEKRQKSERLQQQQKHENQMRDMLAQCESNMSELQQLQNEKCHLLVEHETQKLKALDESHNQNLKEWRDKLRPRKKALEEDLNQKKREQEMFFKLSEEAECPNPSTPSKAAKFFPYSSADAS
Chain of CDK5 (Q00535 whole entry): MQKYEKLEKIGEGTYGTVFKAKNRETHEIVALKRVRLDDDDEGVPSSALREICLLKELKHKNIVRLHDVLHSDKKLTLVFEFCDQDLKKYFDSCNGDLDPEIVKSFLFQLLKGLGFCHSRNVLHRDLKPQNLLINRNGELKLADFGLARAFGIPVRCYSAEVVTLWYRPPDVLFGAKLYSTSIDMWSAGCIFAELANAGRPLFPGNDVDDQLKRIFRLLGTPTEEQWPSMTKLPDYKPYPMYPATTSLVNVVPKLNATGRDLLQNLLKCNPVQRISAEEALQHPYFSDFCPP

SMILES: Cc1ccc(C(=O)Nc2cccc(C(C)(C)C#N)c2)cc1NC(=O)c1cncc(-c2cccs2)c1 [I-6, N-(5-((3-(2-cyanopropan-2-yl)phenyl)carbamoyl)-2-methylphenyl)-5-(thiophen-2-yl)nicotinamide]
- inhibition of kinase labeling (ABL, ARG): >90%
- inhibition at 1 µM (BARK1): -1.2%
- inhibition at 1 µM (CaMK1d): -17.8%
- inhibition of kinase labeling [1]: 0.7%
- inhibition at 1 µM (CaMK2d): -1.1%
- inhibition at 1 µM (CaMK4): 20.7%
- inhibition at 1 µM (CDK2): 8.6%
- inhibition at 1 µM (CDK5): 9.3%
- inhibition at 1 µM (CK1a): 25.1%
- inhibition at 1 µM (CK1g2): 10.8%
- inhibition at 1 µM (DNAPK): 4.6%
- inhibition at 1 µM (Erk1): -3%
- inhibition at 1 µM (GSK3A): 17.3%
- inhibition at 1 µM (GSK3B): 15.9%
- inhibition at 1 µM (HPK1): 7.5%
- inhibition of kinase labeling (IKKe, TBK1): 24.8%
- inhibition at 1 µM (JAK1 domain2): 3.3%
- inhibition at 1 µM (KHS1): -21.8%
- inhibition at 1 µM (LCK): 82.1%
- inhibition at 1 µM (LKB1): 4.9%
- inhibition at 1 µM (LOK): 23.9%
- inhibition at 1 µM (LYN; Activation Loop, A375 cells): 68.5%
- inhibition at 1 µM (LYN; Lys1, A375 cells): 87.6%
- inhibition at 1 µM (MAP2K1): 10.8%
- inhibition of kinase labeling (MAP2K1, MAP2K2): 4.1%
- inhibition at 1 µM (MAP2K4): -14.6%
- inhibition at 1 µM (MAP3K5): 16.2%
- inhibition of kinase labeling (MARK1, MARK2): −4.9%
- inhibition of kinase labeling (MARK2, MARK3): 17.2%
- inhibition of kinase labeling (NEK6, NEK7): −3.7%
- inhibition at 1 µM (p70S6K): 7.4%
- inhibition at 1 µM (PFTAIRE1): -31.3%
- inhibition at 1 µM (PIK3C3): -23.1%
- inhibition at 1 µM (PIK3CB): 2.8%
- inhibition of kinase labeling (PKD1, PKD2): −2.5%
- inhibition at 1 µM (PKD2): -17.8%
- inhibition at 1 µM (PKN1): -35.2%
- inhibition at 1 µM (RSK2 domain1): 5%
- inhibition at 1 µM (STLK5): -17.8%
- inhibition of kinase labeling (TAO1, TAO3): 11.9%
- inhibition of kinase labeling (ZAK; Lys1, 1 μM, A375 cells): >95%
- inhibition at 1 µM (ZAK; Lys1, A375 cells, read-out: inhibition of kinase labeling): > 95%
- inhibition at 1 µM (ZAP70): 7.5%
